Data reported in the NIST ThermoML archive (doi:10.1021/je034087q).

Test: xn = mol fraction of the nth substance listed

CC(C)=O [acetone] + O=C=O
Conditions | mass density [kg/m3]
326.65 K, 9200 kPa, Fluid (supercritical or subcritical phases), x2 = 0.933 | 535
326.65 K, 9240 kPa, Fluid (supercritical or subcritical phases), x2 = 0.933 | 540
326.65 K, 9270 kPa, Fluid (supercritical or subcritical phases), x2 = 0.933 | 544
326.65 K, 9310 kPa, Fluid (supercritical or subcritical phases), x2 = 0.933 | 549
326.65 K, 9340 kPa, Fluid (supercritical or subcritical phases), x2 = 0.933 | 553
326.65 K, 9370 kPa, Fluid (supercritical or subcritical phases), x2 = 0.933 | 559
326.65 K, 9410 kPa, Fluid (supercritical or subcritical phases), x2 = 0.933 | 563
326.65 K, 9460 kPa, Fluid (supercritical or subcritical phases), x2 = 0.933 | 569
326.65 K, 9500 kPa, Fluid (supercritical or subcritical phases), x2 = 0.933 | 574
326.65 K, 9550 kPa, Fluid (supercritical or subcritical phases), x2 = 0.933 | 579
326.65 K, 9600 kPa, Fluid (supercritical or subcritical phases), x2 = 0.933 | 584
326.65 K, 9660 kPa, Fluid (supercritical or subcritical phases), x2 = 0.933 | 590
326.65 K, 9710 kPa, Fluid (supercritical or subcritical phases), x2 = 0.933 | 594
326.65 K, 9790 kPa, Fluid (supercritical or subcritical phases), x2 = 0.933 | 601
326.65 K, 9850 kPa, Fluid (supercritical or subcritical phases), x2 = 0.933 | 606
326.65 K, 9930 kPa, Fluid (supercritical or subcritical phases), x2 = 0.933 | 612
326.65 K, 10010 kPa, Fluid (supercritical or subcritical phases), x2 = 0.933 | 617
326.65 K, 10110 kPa, Fluid (supercritical or subcritical phases), x2 = 0.933 | 625
326.65 K, 10210 kPa, Fluid (supercritical or subcritical phases), x2 = 0.933 | 630
326.65 K, 10340 kPa, Fluid (supercritical or subcritical phases), x2 = 0.933 | 637
326.65 K, 10470 kPa, Fluid (supercritical or subcritical phases), x2 = 0.933 | 643
326.65 K, 10590 kPa, Fluid (supercritical or subcritical phases), x2 = 0.933 | 650
326.65 K, 10750 kPa, Fluid (supercritical or subcritical phases), x2 = 0.933 | 656
326.65 K, 10920 kPa, Fluid (supercritical or subcritical phases), x2 = 0.933 | 663
326.65 K, 11100 kPa, Fluid (supercritical or subcritical phases), x2 = 0.933 | 670
326.65 K, 11320 kPa, Fluid (supercritical or subcritical phases), x2 = 0.933 | 677
326.65 K, 11540 kPa, Fluid (supercritical or subcritical phases), x2 = 0.933 | 684
326.65 K, 11800 kPa, Fluid (supercritical or subcritical phases), x2 = 0.933 | 691
326.65 K, 12060 kPa, Fluid (supercritical or subcritical phases), x2 = 0.933 | 699
326.65 K, 12380 kPa, Fluid (supercritical or subcritical phases), x2 = 0.933 | 708
326.65 K, 12730 kPa, Fluid (supercritical or subcritical phases), x2 = 0.933 | 715
326.65 K, 13140 kPa, Fluid (supercritical or subcritical phases), x2 = 0.933 | 723
326.65 K, 13580 kPa, Fluid (supercritical or subcritical phases), x2 = 0.933 | 731
326.65 K, 14060 kPa, Fluid (supercritical or subcritical phases), x2 = 0.933 | 741
326.65 K, 14600 kPa, Fluid (supercritical or subcritical phases), x2 = 0.933 | 749
328.15 K, 9370 kPa, Fluid (supercritical or subcritical phases), x2 = 0.902 | 632
328.15 K, 9490 kPa, Fluid (supercritical or subcritical phases), x2 = 0.902 | 640
328.15 K, 9620 kPa, Fluid (supercritical or subcritical phases), x2 = 0.902 | 645
328.15 K, 9720 kPa, Fluid (supercritical or subcritical phases), x2 = 0.902 | 650
328.15 K, 9780 kPa, Fluid (supercritical or subcritical phases), x2 = 0.902 | 654
328.15 K, 9910 kPa, Fluid (supercritical or subcritical phases), x2 = 0.902 | 657
328.15 K, 10020 kPa, Fluid (supercritical or subcritical phases), x2 = 0.902 | 662
328.15 K, 10150 kPa, Fluid (supercritical or subcritical phases), x2 = 0.902 | 669
328.15 K, 10330 kPa, Fluid (supercritical or subcritical phases), x2 = 0.902 | 673
328.15 K, 10480 kPa, Fluid (supercritical or subcritical phases), x2 = 0.902 | 679
328.15 K, 10610 kPa, Fluid (supercritical or subcritical phases), x2 = 0.902 | 684
328.15 K, 10820 kPa, Fluid (supercritical or subcritical phases), x2 = 0.902 | 688
328.15 K, 11020 kPa, Fluid (supercritical or subcritical phases), x2 = 0.902 | 695
328.15 K, 11200 kPa, Fluid (supercritical or subcritical phases), x2 = 0.902 | 700
328.15 K, 11440 kPa, Fluid (supercritical or subcritical phases), x2 = 0.902 | 705
328.15 K, 11720 kPa, Fluid (supercritical or subcritical phases), x2 = 0.902 | 711
328.15 K, 11920 kPa, Fluid (supercritical or subcritical phases), x2 = 0.902 | 716
328.15 K, 12230 kPa, Fluid (supercritical or subcritical phases), x2 = 0.902 | 721
328.15 K, 12460 kPa, Fluid (supercritical or subcritical phases), x2 = 0.902 | 727
328.15 K, 12780 kPa, Fluid (supercritical or subcritical phases), x2 = 0.902 | 733
328.15 K, 12970 kPa, Fluid (supercritical or subcritical phases), x2 = 0.902 | 737
328.15 K, 13310 kPa, Fluid (supercritical or subcritical phases), x2 = 0.902 | 739
328.15 K, 13640 kPa, Fluid (supercritical or subcritical phases), x2 = 0.902 | 748
328.15 K, 13900 kPa, Fluid (supercritical or subcritical phases), x2 = 0.902 | 748
328.15 K, 14180 kPa, Fluid (supercritical or subcritical phases), x2 = 0.902 | 754
328.15 K, 14600 kPa, Fluid (supercritical or subcritical phases), x2 = 0.902 | 758
328.15 K, 14820 kPa, Fluid (supercritical or subcritical phases), x2 = 0.902 | 761
328.15 K, Liquid, Other PVT measurement, x2 = 0.902 | 626
333.15 K, 9750 kPa, Fluid (supercritical or subcritical phases), x2 = 0.902 | 573
333.15 K, 9830 kPa, Fluid (supercritical or subcritical phases), x2 = 0.902 | 579
333.15 K, 9880 kPa, Fluid (supercritical or subcritical phases), x2 = 0.902 | 582
333.15 K, 9920 kPa, Fluid (supercritical or subcritical phases), x2 = 0.902 | 585
333.15 K, 9990 kPa, Fluid (supercritical or subcritical phases), x2 = 0.902 | 590
333.15 K, 10050 kPa, Fluid (supercritical or subcritical phases), x2 = 0.902 | 594
333.15 K, 10100 kPa, Fluid (supercritical or subcritical phases), x2 = 0.902 | 599
333.15 K, 10180 kPa, Fluid (supercritical or subcritical phases), x2 = 0.902 | 603
333.15 K, 10250 kPa, Fluid (supercritical or subcritical phases), x2 = 0.902 | 607
333.15 K, 10320 kPa, Fluid (supercritical or subcritical phases), x2 = 0.902 | 610
333.15 K, 10380 kPa, Fluid (supercritical or subcritical phases), x2 = 0.902 | 614
333.15 K, 10500 kPa, Fluid (supercritical or subcritical phases), x2 = 0.902 | 619
333.15 K, 10610 kPa, Fluid (supercritical or subcritical phases), x2 = 0.902 | 626
333.15 K, 10750 kPa, Fluid (supercritical or subcritical phases), x2 = 0.902 | 631
333.15 K, 10850 kPa, Fluid (supercritical or subcritical phases), x2 = 0.902 | 636
333.15 K, 10920 kPa, Fluid (supercritical or subcritical phases), x2 = 0.902 | 641
333.15 K, 11080 kPa, Fluid (supercritical or subcritical phases), x2 = 0.902 | 646
333.15 K, 11170 kPa, Fluid (supercritical or subcritical phases), x2 = 0.902 | 650
333.15 K, 11280 kPa, Fluid (supercritical or subcritical phases), x2 = 0.902 | 654
333.15 K, 11490 kPa, Fluid (supercritical or subcritical phases), x2 = 0.902 | 660
333.15 K, 11690 kPa, Fluid (supercritical or subcritical phases), x2 = 0.902 | 666
333.15 K, 11820 kPa, Fluid (supercritical or subcritical phases), x2 = 0.902 | 671
333.15 K, 12000 kPa, Fluid (supercritical or subcritical phases), x2 = 0.902 | 676
333.15 K, 12230 kPa, Fluid (supercritical or subcritical phases), x2 = 0.902 | 682
333.15 K, 12390 kPa, Fluid (supercritical or subcritical phases), x2 = 0.902 | 687
333.15 K, 12560 kPa, Fluid (supercritical or subcritical phases), x2 = 0.902 | 690
333.15 K, 12840 kPa, Fluid (supercritical or subcritical phases), x2 = 0.902 | 697
333.15 K, 13010 kPa, Fluid (supercritical or subcritical phases), x2 = 0.902 | 700
333.15 K, 13280 kPa, Fluid (supercritical or subcritical phases), x2 = 0.902 | 705
333.15 K, 13630 kPa, Fluid (supercritical or subcritical phases), x2 = 0.902 | 711
333.15 K, 13800 kPa, Fluid (supercritical or subcritical phases), x2 = 0.902 | 716
333.15 K, 13980 kPa, Fluid (supercritical or subcritical phases), x2 = 0.902 | 719
333.15 K, 14280 kPa, Fluid (supercritical or subcritical phases), x2 = 0.902 | 723
333.15 K, 14460 kPa, Fluid (supercritical or subcritical phases), x2 = 0.902 | 726
333.15 K, 14830 kPa, Fluid (supercritical or subcritical phases), x2 = 0.902 | 733
333.15 K, Liquid, Other PVT measurement, x2 = 0.902 | 570
335.15 K, 9800 kPa, Fluid (supercritical or subcritical phases), x2 = 0.909 | 532
335.15 K, 9820 kPa, Fluid (supercritical or subcritical phases), x2 = 0.909 | 535
335.15 K, 9860 kPa, Fluid (supercritical or subcritical phases), x2 = 0.909 | 539
335.15 K, 9900 kPa, Fluid (supercritical or subcritical phases), x2 = 0.909 | 543
335.15 K, 9940 kPa, Fluid (supercritical or subcritical phases), x2 = 0.909 | 548
335.15 K, 10000 kPa, Fluid (supercritical or subcritical phases), x2 = 0.909 | 551
335.15 K, 10050 kPa, Fluid (supercritical or subcritical phases), x2 = 0.909 | 558
335.15 K, 10100 kPa, Fluid (supercritical or subcritical phases), x2 = 0.909 | 562
335.15 K, 10160 kPa, Fluid (supercritical or subcritical phases), x2 = 0.909 | 567
335.15 K, 10220 kPa, Fluid (supercritical or subcritical phases), x2 = 0.909 | 572
335.15 K, 10280 kPa, Fluid (supercritical or subcritical phases), x2 = 0.909 | 578
